{
  "source": "paper PMC9150076",
  "about": "(Journal of Medicinal Chemistry, 2022)",
  "key": {"FAAH": {"molecular_target": "FAAH (Mus musculus, UniProt O08914)", "sequence (O08914 whole entry)": "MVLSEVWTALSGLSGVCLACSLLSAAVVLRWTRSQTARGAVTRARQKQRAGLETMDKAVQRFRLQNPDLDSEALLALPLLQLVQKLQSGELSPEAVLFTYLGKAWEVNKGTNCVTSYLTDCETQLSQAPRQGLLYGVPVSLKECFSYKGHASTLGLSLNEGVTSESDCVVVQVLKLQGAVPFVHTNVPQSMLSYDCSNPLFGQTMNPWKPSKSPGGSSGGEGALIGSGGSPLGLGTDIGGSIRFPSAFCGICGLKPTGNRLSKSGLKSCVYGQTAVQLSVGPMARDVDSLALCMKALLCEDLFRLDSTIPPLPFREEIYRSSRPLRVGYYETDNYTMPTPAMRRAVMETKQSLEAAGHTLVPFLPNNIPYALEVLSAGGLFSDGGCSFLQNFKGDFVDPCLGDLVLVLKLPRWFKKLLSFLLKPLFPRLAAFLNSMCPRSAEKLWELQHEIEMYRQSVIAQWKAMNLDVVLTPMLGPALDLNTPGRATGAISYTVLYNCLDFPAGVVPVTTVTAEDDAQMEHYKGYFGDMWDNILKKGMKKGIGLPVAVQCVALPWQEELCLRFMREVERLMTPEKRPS", "assay_type": "biochemical"}, "Bcl-2": {"test_system": "Bcl-2", "test": "qRT-PCR gene expression, Bcl-2", "assay_type": "cell-based", "conditions": "5× IC50, 24 h, compared to untreated cells", "method": "(§1) To elucidate the previous data on apoptosis and migration and the mechanism of interaction, further studies focused on several potential cellular determinants and effectors of drug activities, such as the anti-apoptotic factor Bcl-2, the key matrix metalloproteinase 9 (MMP9), which promotes cell migration, and the main gemcitabine transporter, the human equilibrative nucleoside transporter 1 (hENT1).\n(§2) Real-time quantitative reverse transcription PCR (qRT-PCR) was performed to evaluate the gene expression of MMP9, BCL-2, BCL-x, and hENT1, using β-actin, and GAPDH as housekeeping genes. […] Total RNA was extracted using the TRIzol Reagent (15596–026, ThermoFisher Scientific, Waltham, MA) according to the manufacturer’s protocol. One microgram of RNA was reverse transcribed using first-strand cDNA synthesis (First Strand cDNA Synthesis Kit; ThermoFisher #K1612) on a Bio-Rad machine C100 Thermal Cycler. Real-time qPCR quantification was performed using specific TaqMan detection probes and primers (TaqMan Universal PCR Master Mix #4304437; Thermo Fisher Scientific, USA) with the ABIPRISM-7500 instrument (Applied Biosystems, Foster City, CA), as described previously.[60] Data obtained were analyzed according to the 2^–ΔΔCt method."}, "[1]": {"test_system": "active caspase-3 in PDAC2 cells", "test": "Active caspase-3 immunoassay, PDAC2", "assay_type": "cell-based, human", "conditions": "untreated 0.35"}, "Water solubility": {"test": "Water solubility", "assay_type": "physicochemical", "conditions": "distilled water, room temperature", "method": "6.9 software. Chromatographic separation was obtained using a Kinetex C18 column (150 × 4.6 mm) with a 5 μm particle size and gradient elution with a binary solution; (eluent A: ACN, eluent B: water, both eluents were acidified with formic acid 0.1% v/v). The analysis started with 5% of A (from t = 0 to t = 1 min), then A was increased to 95% (from t = 1 to t = 10 min), then kept at 95% (from t = 10 to t = 19 min), and finally returned to 5% of eluent A in 1.0 min. The flow rate was 0.6 mL/min, and injection volumes were 10 μL. The instrument operated in positive mode, and parameters were detector 1450 V, drying gas pressure 35.0 psi, desolvation temperature 300.0 °C, nebulizing gas 45.0 psi, needle 5550 V and shield 350 V. Nitrogen was used as a nebulizer gas and drying gas. Collision-induced dissociation was performed using argon as the collision gas at a pressure of 1.8 mTorr in the collision cell. The transitions as well as the capillary voltage and the collision energy used are appropriated for each tested compound. Quantification of the single compound was made by comparison with appropriate calibration curves realized with standard solutions in methanol. LC analyses of PAMPA, metabolic stability, and stability tests (in MeOH, PBS, human plasma) were performed by UV/LC–MS with an Agilent 1100 LC/MSD VL system ((G1946C) Agilent Technologies, Palo Alto, CA) using a Phenomenex Kinetex C18–100 Å (150 × 4.6 mm, 5 μm particle size) at room temperature. Analyses were carried out with the same chromatographic conditions reported above.\nEach sample was mixed at room temperature in a shaker water bath for 24 h.[62] The resulting suspension was filtered through a 0.45 μm nylon filter (Acrodisc), and the solubilized compound was quantified in triplicate using the LC–MS/MS method reported above, by comparison with the appropriate calibration curve that was obtained from samples of the compound dissolved in methanol at different concentrations."}, "[2]": {"test_system": "active caspase-3 in PDAC3 cells", "test": "Active caspase-3 immunoassay, PDAC3", "assay_type": "cell-based, human", "conditions": "PDAC3, compared to untreated cells"}, "[3]": {"test_system": "PDAC3 primary cell culture", "test": "Growth inhibition, SRB assay, PDAC3", "assay_type": "cell-based, human", "conditions": "Homo sapiens, PDAC-3; PDAC3, 72 h, SRB; read-out: IC50 antiproliferative activity"}, "MMP9": {"test_system": "MMP9", "test": "qRT-PCR gene expression, MMP9", "assay_type": "cell-based", "conditions": "5× IC50, 24 h, compared to untreated cells", "method": "as §1, §2"}, "ABHD6": {"molecular_target": "ABHD6 (Mus musculus, UniProt Q8R2Y0)", "sequence (Q8R2Y0 whole entry)": "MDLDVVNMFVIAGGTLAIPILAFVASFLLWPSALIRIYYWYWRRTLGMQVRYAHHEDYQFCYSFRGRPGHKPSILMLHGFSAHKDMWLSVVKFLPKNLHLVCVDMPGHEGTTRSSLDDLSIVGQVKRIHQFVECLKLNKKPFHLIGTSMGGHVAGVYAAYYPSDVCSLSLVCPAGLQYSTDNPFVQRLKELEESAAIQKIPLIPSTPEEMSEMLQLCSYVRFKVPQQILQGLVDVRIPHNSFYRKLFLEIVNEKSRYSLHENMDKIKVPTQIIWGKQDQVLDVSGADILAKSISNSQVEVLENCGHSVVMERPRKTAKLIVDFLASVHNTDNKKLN"}},
  "note": "Where two headings read alike, the source gives them in different places.",
  "data": [
    {"smiles": "O=C(c1cc(O)ccc1F)N1CCC(Cc2cccc(Oc3cc(C(F)(F)F)ccn3)c2)CC1", "note": "[Compound 13, (2-Fluoro-5-hydroxyphenyl)(4-(3-((4-(trifluoromethyl)pyridin-2-yl)oxy)benzyl)piperidin-1-yl)methanone]", "values": [
      {"measurement": "TAMRA-FP labelling of FAAH band (ABPP)", "setting": "FAAH", "value": "without affecting"},
      {"measurement": "Bcl-2 gene expression", "setting": "Bcl-2", "value": "slight reduction"},
      {"measurement": "levels of active caspase-3", "setting": "[1]", "value": 1.12, "unit": "ng/mL"},
      {"measurement": "solubility at 24 h", "setting": "Water solubility; read-out: water solubility", "value": "< 1", "unit": "ng/mL"},
      {"measurement": "solubility at 24 h", "setting": "Water solubility; read-out: water solubility (logS)", "value": "< 2.11", "unit": "nM"},
      {"measurement": "levels of active caspase-3", "setting": "[2]", "value": "significantly higher levels of active caspase-3"},
      {"measurement": "IC50", "setting": "[3]", "value": 7.25, "unit": "µM"},
      {"measurement": "MMP9 gene expression", "setting": "MMP9", "value": "significant reduction"},
      {"measurement": "TAMRA-FP labelling of ABHD6 band (ABPP)", "setting": "ABHD6", "value": "without affecting"}
    ]}
  ]
}
